Test results taken from patent publication US8029832B2, “Obesity and metabolic syndrome treatment with tanshinone derivatives which increase metabolic activity” (priority 2003, dated 2011).

Tests used:
[1] = system: cardiac myocytes; conditions: Biochemical Pharmacology 64, 745-750 (2002); cited from earlier work
[2] = system: mitochondria; conditions: Biochemical Pharmacology 65, 51-57, 2003; cited from earlier work
[3] = system: AMPK; test: AMPK activity of double or triple combinations of tanshinone derivatives in muscle cells; format: cell-based; conditions: combinations of the four tanshinone derivatives
Experimental: Using muscle cells, this example was carried out to confirm synergistic effects of AMPK activity with respect to the combination ratio between derivatives, which contained tanshinone I, tanshinone IIA, cryptotanshinone and 15,16-dihydrotanshinone I, as main ingredients. That is, we have attempted to confirm inter-complementary functions between derivatives according to gene expression as shown in Example 5 and thereby synergistic effects by any combination of tanshinone derivatives through AMPK activity.
The respective ingredients of tanshinone I, tanshinone IIA, cryptotanshinone and 15,16-dihydrotanshinone I were doubly or triply combined to prepare different compositions. AMPK activity of the prepared compositions and the AMPK activity of respective ingredients included in those compositions were compared to confirm synergistic effects. In addition, we have attempted to confirm AMPK activity with respect to changes in the combination ratio by varying the ratio between ingredients in the compositions, and to obtain synergistic effects of activity by any combination of tanshinone derivatives.

[4] = system: hepatocytes; conditions: Planta Med. 2002, 68, 1077-1081; cited from earlier work
[5] = system: cardiac myocytes; conditions: Planta Med. 2002, 68, 1103-1107; cited from earlier work
[6] = system: cardiac fibroblasts; conditions: Planta Med. 2002, 68, 1103-1107; cited from earlier work

Cc1c(S(=O)(=O)O)oc2c1C(=O)C(=O)c1c-2ccc2c1CCCC2(C)C [tanshinone IIA sulfonate]
hypertrophy of cardiac myocytes induced by angiotensin II [1]: attenuates hypertrophy of cardiac myocytes induced by angiotensin II
electron-transfer reaction in mitochondria [2]: facilitates an electron-transfer reaction in mitochondria

Cc1coc2c1C(=O)C(=O)c1c-2ccc2c1CCCC2(C)C [tanshinone IIA]
enhancement effect on AMPK activity by combinational use of two or more of these compounds [3]: significantly increased

15,16-Dihydrotanshinone I
enhancement effect on AMPK activity by combinational use of two or more of these compounds [3]: significantly increased

tanshinone I
enhancement effect on AMPK activity by combinational use of two or more of these compounds [3]: significantly increased

Cc1cccc2c3c(ccc12)C(=O)C1=C(OCC1C)C3=O (stereo not drawn) [dihydroisotanshinone I]
effect against menadione-induced cytotoxicity in hepatocytes [4]: hepatoprotective effects

C[C@H]1COC2=C1C(=O)C(=O)c1c2ccc2c1CCCC2(C)C [cryptotanshinone]
enhancement effect on AMPK activity by combinational use of two or more of these compounds [3]: significantly increased

Cc1cccc2c3c(ccc12)C(O)=C(C(C)CO)C(=O)C3=O (stereo not drawn) [tanshinone VI]
hypertrophy of cardiac myocytes [5]: attenuates hypertrophy of cardiac myocytes
synthesis of collagen by cardiac fibroblasts [6]: inhibits synthesis of collagen by cardiac fibroblasts
